Data reported in patent US20260183274A1, “PDK1 REGULATORY COMPOUND AND COMPOSITION CONTAINING THE SAME” (PROVIBIO CO., LTD., priority 2024, published 2026).

Legend:
[1] = tested on: Human B Lymphocyte cell line, SU-DHL-8; test: Relative cell viability CCK-8, SU-DHL-8; assay type: cell-based; details: for viability at 1 µM / viability at 10 µM / viability at 30 µM / viability at 50 µM: Homo sapiens, SU-DHL-8, 48 h; for viability at 1 µM: read-out: Relative cell viability (%), SU-DHL-8, 1 μM; for viability at 10 µM: read-out: Relative cell viability (%), SU-DHL-8, 10 μM; for viability at 30 µM: read-out: Relative cell viability (%), SU-DHL-8, 30 μM; for viability at 50 µM: read-out: Relative cell viability (%), SU-DHL-8, 50 μM
Experimental: Human-derived B lymphoma cell line SU-DHL-8 (Cat. #CRL-2961) purchased from ATCC was cultured in RPMI-1640 medium containing 10% FBS, 100 U/mL penicillin, and 100 μg/mL streptomycin.
The cell culture medium was then harvested, centrifuged at 1,300 rpm for 5 minutes, and the supernatant was removed. The cells were resuspended in the same medium and dispensed into a 96-well plate (Costar 96-well cell culture plate, Corning) at 90 μL per well, resulting in the conditions specified in Table 5.
Then, 10 μL of CCK-8 was added to each well, and the plates were incubated again at 37° C. in a 5% CO2 incubator for 4 hours.
In other words, when the survival rate of untreated cells (DMSO) is set at 100%, the relative cell survival rate in each group treated with the drug at different concentrations is indicated.

[2] = tested on: T cells isolated from mouse spleens; test: T cell proliferation inhibition (CFSE flow cytometry, anti-CD3/anti-CD28 stimulation); assay type: cell-based; details: mouse spleen T cells, 3 days; for inhibition at 0.01 µM / inhibition at 0.1 µM / inhibition at 1 µM / inhibition at 10 µM / inhibition at 30 µM / inhibition at 50 µM: Mus musculus, T-cell, 72 h, read-out: Proliferation inhibition rate (%)
Outline: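 Splenic T cells from 7-week-old C57BL/6 mice were MACS-isolated, CFSE-labelled, seeded at 2×10^5 cells/well and activated with anti-CD3/anti-CD28 (0.5 μg/mL each). Compound at 10 nM–50 μM (six levels, triplicate) was present for 3 days at 37 °C before flow cytometric readout of proliferation inhibition rate.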

[3] = 1 μM, 48 hours, untreated (DMSO) = 100%
[4] = 10 μM, 48 hours, untreated (DMSO) = 100%
[5] = 30 μM, 48 hours, untreated (DMSO) = 100%
[6] = 50 μM, 48 hours, untreated (DMSO) = 100%
[7] = 48 hours, untreated (DMSO) = 100%

SMILES | Relative cell viability (%), SU-DHL-8 [1, 3] | Relative cell viability (%), SU-DHL-8 [1, 4] | Relative cell viability (%), SU-DHL-8 [1, 5] | Relative cell viability (%), SU-DHL-8 [1, 6] | Proliferation inhibition rate (%) ([2]; compound 10 nM) | Proliferation inhibition rate (%) ([2]; compound 100 nM) | Proliferation inhibition rate (%) ([2]; compound 1 μM) | Proliferation inhibition rate (%) ([2]; compound 10 μM) | Proliferation inhibition rate (%) ([2]; compound 30 μM) | Proliferation inhibition rate (%) ([2]; compound 50 μM) | viability at 1 µM [1, 7] | viability at 10 µM [1, 7] | viability at 30 µM [1, 7] | inhibition at 0.01 µM ([2]; compound 10 nM) | inhibition at 0.1 µM ([2]; compound 100 nM) | inhibition at 1 µM ([2]; compound 1 μM) | inhibition at 10 µM ([2]; compound 10 μM) | inhibition at 30 µM ([2]; compound 30 μM) | inhibition at 50 µM ([2]; compound 50 μM) | viability at 50 µM [1, 7] | also measured
C[C@H]1CNCCN1CCCCCCCCCCCCNC(=O)c1cccnc1N.Cl [Compound 37, (S)-2-Amino-N-(12-(2-methylpiperazin-1-yl)dodecyl) nicotinamide hydrochloride] | 6.38% | 4.45% | 3.17% | 2.32% | −4.14% | 33.33% | 100.00% | 100.00% | 100.00% | 100.00% |  |  |  |  |  |  |  |  |  |  | 
Nc1ncccc1C(=O)NCCCCCCCCCCCCN1CCC(Oc2ccncc2)CC1 [Compound 38, 2-Amino-N-(12-(4-(pyridin-4-yloxy)piperidin-1-yl)dodecyl) nicotinamide] | 4.16% | 3.30% | 1.79% | 1.42% | −33.51% | 100.00% | 100.00% | 100.00% | 100.00% | 100.00% |  |  |  |  |  |  |  |  |  |  | 
CC1CCCN(CCCCCCCCCCCCNC(=O)c2cccnc2N)CC1 (centres unmarked) [Compound 39, 2-Amino-N-(12-(4-methylazepan-1-yl)dodecyl) nicotinamide] | 11.48% | 8.41% | 6.24% | 4.27% | −58.92% | 100.00% | 100.00% | 100.00% | 100.00% | 100.00% |  |  |  |  |  |  |  |  |  |  | 
CC1CN(C)C(CCCCCCCCCCCCNc2ccc3cncnc3n2)N1 (centres unmarked) [Compound 43] | 22.61% | 11.93% | 2.34% | 1.58% | −10.80% | 100.00% | 100.00% | 100.00% | 100.00% | 100.00% |  |  |  |  |  |  |  |  |  |  | 
Nc1ncccc1C(=O)NCCCCCCCCCCCCN1CC2CCCC2C1 (centres unmarked) [Compound 46, 2-Amino-N-(12-(hexahydrocyclopenta[c]pyrrol-2 (1H)-yl)dodecyl)nicotinamide] |  |  |  |  |  |  |  |  |  |  | 4.8% | 2.44% | 2.08% | -10.5% | 100% | 100% | 100% | 100% | 100% |  | Relative cell viability (%), SU-DHL-8 ([1]; human, 48 h, 50 µM): −0.92%
Cc1ccc(C2CCN(CCCCCCCCCCCCNC(=O)c3cccnc3N)CC2)cc1 [Compound 55, 2-Amino-N-(12-(4-(p-tolyl)piperidin-1-yl)dodecyl) nicotinamide] | 9.36% | 4.92% | 1.10% | 0.97% | 89.67% | 100.00% | 100.00% | 100.00% | 100.00% | 100.00% |  |  |  |  |  |  |  |  |  |  | 
Cc1nnc(C)n1CCCCCCCCCCCCNC(=O)c1cccnc1N [Compound 56, 2-Amino-N-(12-(3,5-dimethyl-4H-1,2,4-triazol-4-yl)dodecyl)nicotinamide] |  |  |  |  |  |  |  |  |  |  | 32.4% | 19.6% | 11.2% | -2.51% | 2.91% | 81.1% | 100% | 100% | 100% | 0% | 
Nc1ncccc1C(=O)NCCCCCCCCF [Compound 61, 2-Amino-N-(8-fluoro-octyl)-nicotinamide] |  |  |  |  |  |  |  |  |  |  | 48.8% | 36.4% | 42% | -10.2% | -6.37% | -5.75% | 34.9% | 85.4% | 93.2% | 21% | 
O=C(NCCCCCCCCCCCCF)c1cccnc1S [Compound 62, N-(12-fluoro-dodecyl)-2-mercapto-nicotinamide] |  |  |  |  |  |  |  |  |  |  | 32.5% | 24.9% | 22.9% | 0% | 0% | 0% | -18.5% | 100% | 100% | 19.3% | 
Nc1ncccc1C(=O)NCCCCCCCCCCN1CCOCC1 [Compound 63, 2-Amino-N-(10-morpholin-4-yl-decyl)-nicotinamide] |  |  |  |  |  |  |  |  |  |  | 33% | 29.8% | 29.1% | -9.84% | 4.85% | 11.2% | 100% | 100% | 100% | 27.9% | 
O=C(NCCCCCCCCCCCCF)c1ncccc1O [Compound 64, 3-Hydroxy-pyridine-2-carboxylic acid (12-fluoro-dodecyl)-amide] |  |  |  |  |  |  |  |  |  |  | 23.3% | 14.1% | 6.51% | -4.11% | 8.63% | 6.99% | 8.94% | 80.4% | 97% | 6.33% | 
Cl.Nc1ncccc1C(=O)NCCCCCCCCCCCCF [Compound 69, 3-(12-fluoro-dodecylcarbamoyl)-pyridin-2-yl-ammonium chloride] | 27.80% | 15.16% | 1.05% | 0.77% | −4.04% | −4.66% | 7.14% | 65.36% | 89.94% | 99.20% |  |  |  |  |  |  |  |  |  |  | 
Nc1ccncc1C(=O)NCCCCCCCCCCCCF [Compound 73, 4-Amino-N-(12-fluoro-dodecyl)-nicotinamide] |  |  |  |  |  |  |  |  |  |  | 11.9% | 5.03% | 0.98% | -6.44% | 5.75% | 7.4% | 84.8% | 100% | 100% | 0.91% | 
Nc1ncccc1C(=O)NCCCCCCCCCCCCn1nnc2cccnc21 [Compound 88, N-(12-(3H-[1,2,3]triazolo[4,5-b]pyridin-3-yl)dodecyl)-2-aminonicotinamide] |  |  |  |  |  |  |  |  |  |  | 12.6% | 5.98% | 5.06% | -3.22% | 4.29% | 56.3% | 100% | 100% | 100% | 2.23% | 
